Test results from PubChem BioAssay (NCI).
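A five-concentration, 48-hour dose response in 96-well plates underlies each endpoint, interpolated linearly between surrounding concentrations. GI50 is the concentration that inhibits growth by half. At the TGI there is no net growth.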

How the values were obtained:
Assay in all cases: growth of human tumour cells (NCI), 48 h
786-0 renal = system: 786-0 renal
A498 renal = system: A498 renal
A549 NSCLC = system: A549 NSCLC
ACHN renal = system: ACHN renal
BT-549 breast = system: BT-549 breast
CAKI-1 renal = system: CAKI-1 renal
CCRF-CEM leukemia = system: CCRF-CEM leukemia
COLO 205 colon = system: COLO 205 colon
DU-145 prostate = system: DU-145 prostate
EKVX NSCLC = system: EKVX NSCLC
HCC-2998 colon = system: HCC-2998 colon
HCT-116 colon = system: HCT-116 colon
HCT-15 colon = system: HCT-15 colon
HL-60(TB) leukemia = system: HL-60(TB) leukemia
HOP-62 NSCLC = system: HOP-62 NSCLC
HOP-92 NSCLC = system: HOP-92 NSCLC
HS 578T breast = system: HS 578T breast
HT29 colon = system: HT29 colon
IGROV1 ovarian = system: IGROV1 ovarian
K-562 leukemia = system: K-562 leukemia
KM12 colon = system: KM12 colon
LOX IMVI melanoma = system: LOX IMVI melanoma
M14 melanoma = system: M14 melanoma
MALME-3M melanoma = system: MALME-3M melanoma
MCF7 breast = system: MCF7 breast
MDA-MB-231 breast = system: MDA-MB-231 breast
MDA-MB-435 = system: MDA-MB-435
NCI-H226 lung = system: NCI-H226 lung
NCI-H23 lung = system: NCI-H23 lung

COC12C=C/C(=C(/C(=O)OCc3csc(SC)n3)C(=O)CCCCCCCCC3(OC)C=C/C(=C(/C(=O)OCc4cnc(SC)s4)C(=O)CCCCCCCC1)O3)O2 (configuration not stated)
GI50 (786-0 renal): 4.93 µM | TGI (786-0 renal): 26.1 µM | GI50 (A498 renal): 2.44 µM | TGI (A498 renal): 21.8 µM | GI50 (A549 NSCLC): 4.65 µM | TGI (A549 NSCLC): > 100 µM | GI50 (ACHN renal): 2.51 µM | TGI (ACHN renal): 28.9 µM | GI50 (BT-549 breast): 4.53 µM | TGI (BT-549 breast): 69.8 µM | GI50 (CAKI-1 renal): 70 µM | TGI (CAKI-1 renal): > 100 µM | GI50 (CCRF-CEM leukemia): 0.455 µM | TGI (CCRF-CEM leukemia): > 100 µM | GI50 (COLO 205 colon): 3.44 µM | TGI (COLO 205 colon): > 100 µM | GI50 (DU-145 prostate): 5.39 µM | TGI (DU-145 prostate): > 100 µM | GI50 (EKVX NSCLC): 6.38 µM | TGI (EKVX NSCLC): > 100 µM | GI50 (HCC-2998 colon): 2.34 µM | TGI (HCC-2998 colon): 5.11 µM | GI50 (HCT-116 colon): 0.439 µM | TGI (HCT-116 colon): 10.9 µM | GI50 (HCT-15 colon): 17 µM | TGI (HCT-15 colon): > 100 µM | GI50 (HL-60(TB) leukemia): 3.1 µM | TGI (HL-60(TB) leukemia): > 100 µM | GI50 (HOP-62 NSCLC): 4.48 µM | TGI (HOP-62 NSCLC): 70.6 µM | GI50 (HOP-92 NSCLC): 12.3 µM | TGI (HOP-92 NSCLC): 32.3 µM | GI50 (HS 578T breast): 4.52 µM | TGI (HS 578T breast): 57.6 µM | GI50 (HT29 colon): 4.41 µM | TGI (HT29 colon): > 100 µM | GI50 (IGROV1 ovarian): 3.89 µM | TGI (IGROV1 ovarian): 83.6 µM | GI50 (K-562 leukemia): 3.19 µM | TGI (K-562 leukemia): > 100 µM | GI50 (KM12 colon): 3.1 µM | TGI (KM12 colon): > 100 µM | GI50 (LOX IMVI melanoma): 1.2 µM | TGI (LOX IMVI melanoma): 3.53 µM | GI50 (M14 melanoma): 2.62 µM | TGI (M14 melanoma): > 100 µM | GI50 (MALME-3M melanoma): 3.84 µM | TGI (MALME-3M melanoma): 39.7 µM | GI50 (MCF7 breast): 1.13 µM | TGI (MCF7 breast): > 100 µM | GI50 (MDA-MB-231 breast): 2.51 µM | TGI (MDA-MB-231 breast): 26.2 µM | GI50 (MDA-MB-435): 1.68 µM | TGI (MDA-MB-435): 5.32 µM | GI50 (NCI-H226 lung): 3.48 µM | TGI (NCI-H226 lung): 17.1 µM | GI50 (NCI-H23 lung): 2.5 µM
